Target: ATP-dependent translocase ABCB1 (Homo sapiens, UniProt P08183)
Experiment: TP_TRANSPORTER: inhibition of Rhodamine 123 efflux (R123: 20 uM, Lamellarin I: 10 uM) in Lo Vo/Dx cells
Assay type: functional, cell-based

Sequence of ATP-dependent translocase ABCB1 (P08183 whole entry): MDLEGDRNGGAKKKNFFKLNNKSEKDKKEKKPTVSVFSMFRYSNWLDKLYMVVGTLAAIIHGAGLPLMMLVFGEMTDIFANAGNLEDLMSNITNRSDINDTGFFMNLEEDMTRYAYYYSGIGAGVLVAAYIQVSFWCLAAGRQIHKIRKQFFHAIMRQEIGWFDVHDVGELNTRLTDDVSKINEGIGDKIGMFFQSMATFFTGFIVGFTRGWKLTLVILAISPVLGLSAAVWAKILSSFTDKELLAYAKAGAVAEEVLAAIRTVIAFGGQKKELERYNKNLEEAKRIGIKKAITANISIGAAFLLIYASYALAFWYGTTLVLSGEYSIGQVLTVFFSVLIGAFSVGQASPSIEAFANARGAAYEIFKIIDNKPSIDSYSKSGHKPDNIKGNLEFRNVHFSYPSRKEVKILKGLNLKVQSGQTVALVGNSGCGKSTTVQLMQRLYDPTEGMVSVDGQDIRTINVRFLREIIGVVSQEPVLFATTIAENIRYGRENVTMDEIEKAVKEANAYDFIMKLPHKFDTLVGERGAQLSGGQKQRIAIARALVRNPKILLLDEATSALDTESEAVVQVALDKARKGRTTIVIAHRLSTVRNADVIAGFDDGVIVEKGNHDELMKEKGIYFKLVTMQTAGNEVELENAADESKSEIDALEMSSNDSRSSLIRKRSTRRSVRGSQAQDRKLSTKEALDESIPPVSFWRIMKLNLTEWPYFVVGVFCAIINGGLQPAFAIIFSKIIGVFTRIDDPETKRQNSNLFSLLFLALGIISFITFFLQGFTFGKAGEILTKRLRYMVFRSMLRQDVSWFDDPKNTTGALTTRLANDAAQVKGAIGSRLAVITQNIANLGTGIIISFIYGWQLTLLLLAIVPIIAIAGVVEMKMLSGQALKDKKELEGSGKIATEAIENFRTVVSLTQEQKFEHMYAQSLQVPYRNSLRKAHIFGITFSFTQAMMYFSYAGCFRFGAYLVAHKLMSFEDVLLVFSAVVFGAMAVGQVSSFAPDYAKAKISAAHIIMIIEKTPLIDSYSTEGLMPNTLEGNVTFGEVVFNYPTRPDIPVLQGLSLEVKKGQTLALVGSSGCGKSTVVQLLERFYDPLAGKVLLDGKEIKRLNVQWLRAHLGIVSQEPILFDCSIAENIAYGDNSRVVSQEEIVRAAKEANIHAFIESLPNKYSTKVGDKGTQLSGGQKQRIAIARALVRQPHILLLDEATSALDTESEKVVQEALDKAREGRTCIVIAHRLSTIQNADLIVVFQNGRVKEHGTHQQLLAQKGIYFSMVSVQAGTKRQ

`COc1cc2c(cc1O)OCc1c-2c(-c2ccc(OC)c(OC)c2)c2n1CCc1c-2cc(OC)c(OC)c1OC` [LAMELLARIN I] was tested, and the Activity was “inhibitor [+]”.

Source: ChEMBL document CHEMBL2074027, “Polyaromatic alkaloids from marine invertebrates as cytotoxic compounds and inhibitors of multidrug resistance caused by P-glycoprotein” (Br J Cancer, 1996)
